According to patent US6538106B1, “Compositions and methods for treating infections using analogues of indolicidin” (priority 1996, dated 2003):
Values joined by “and” are separate entries in the source; they are usually repeats but may differ in a detail not shown here. Identical values can stand only once. Like-named read-outs stand apart in the source and are kept apart here.

Assays:
Format in all cases: cell-based
bacteria = system: bacteria
S. aureus = assay: Synergy assay (agarose dilution, FIC); conditions: for Mupirocin Comb. MIC: MIC of Mupirocin in combination with the peptide; for Peptide Comb. MIC: MIC of peptide in combination with Mupirocin; for Peptide MIC: peptide alone; for Ciprofloxacin Comb. MIC: MIC of Ciprofloxacin in combination with the peptide; for Peptide Comb MIC: MIC of peptide in combination with Ciprofloxacin
Experimental: (§1) Briefly, one assay for in vitro anti-bacterial activity, the agarose dilution assay, is set up with an array of plates that each contain a combination of peptide analogue and antibiotic in various concentrations. The plates are inoculated with bacterial isolates, incubated, and the MICs of the components recorded. […] Antibiotics used in testing include, but are not limited to, penicillins, cephalosporins, carbacephems, cephamycins, carbapenems, monobactams, aminoglycosides, glycopeptides, quinolones, tetracyclines, macrolides, and fluoroquinolones (see Table 1 below).
(§2) Synergy is calculated according to the formula below. An FIC of ≦0.5 is evidence of synergy, although combinations with higher values may be therapeutically useful. [formula]
Synergy is assayed using the agarose dilution technique, where an array of plates, each containing a combination of peptide and antibiotic in a unique concentration mix, is inoculated with the bacterial isolates. Synergy is investigated for peptide analogues in combination with a number of conventional antibiotics including, but not limited to, penicillins, cephalosporins, carbapenems, monobactams, aminoglycosides, macrolides, fluoroquinolones.
(§3) Synergy is expressed as a Fractional Inhibitory Concentration (FIC), which is calculated according to the equation below. An FIC of less than or equal to 0.5 is evidence of synergy, although combinations with higher values may be therapeutically useful. [formula]

E. coli = assay: Synergy assay (agarose dilution, FIC); conditions: for Mupirocin Comb. MIC: MIC of Mupirocin in combination with the peptide; for Peptide Comb. MIC: MIC of peptide in combination with Mupirocin; for FIC: peptide + Mupirocin; for Peptide MIC: peptide alone
Experimental: as §1, §2
(§4) Treatment with a combination of peptide analogues and conventional antibiotics can have a synergistic effect. Synergy is assayed using the agarose dilution technique, where an array of plates, each containing a combination of peptide and antibiotic in a unique concentration mix, is inoculated with the bacterial isolates. Synergy is investigated for peptide analogues in combination with a number of conventional antibiotics including, but not limited to, penicillins, cephalosporins, carbapenems, monobactams, aminoglycosides, macrolides, fluoroquinolones.
as §3

E. faecalis = assay: Synergy assay (agarose dilution, FIC); conditions: E. faecalis EFS8; for Mupirocin Comb. MIC: MIC of Mupirocin in combination with the peptide; for Peptide Comb. MIC: MIC of peptide in combination with Mupirocin; for FIC: peptide + Mupirocin; for Peptide MIC: peptide alone
Experimental: as §1, §2, §4, §3

S. marcescens = assay: Synergy assay (agarose dilution, FIC); conditions: for Mupirocin Comb. MIC: MIC of Mupirocin in combination with the peptide; for Peptide Comb. MIC: MIC of peptide in combination with Mupirocin; for FIC: peptide + Mupirocin; for Peptide MIC: peptide alone
Experimental: as §1, §2, §4, §3

S. epidermidis = assay: Broth dilution assay (MIC); conditions: S. epidermidis SE005
Experimental: This assay also uses calcium and magnesium supplemented Mueller Hinton broth as the growth medium. Typically 100 μl of broth is dispensed into each well of a 96-well microtitre plate and 100 μl volumes of two-fold serial dilutions of the peptide analogue are made across the plate. One row of wells receives no peptide and is used as a growth control. Each well is inoculated with approximately 5×10^5 CFU of bacteria and the plate is incubated at 35-37° C. for 16-20 hours.
For example, MIC values were established for a series of peptide analogues against S. aureus strains.

P. aeruginosa = assay: Synergy assay (agarose dilution, FIC); conditions: for Mupirocin Comb. MIC: MIC of Mupirocin in combination with the peptide; for Peptide Comb. MIC: MIC of peptide in combination with Mupirocin
Experimental: as §1, §2, §4, §3

P. vulgaris = assay: Synergy assay (agarose dilution, FIC); conditions: P. vulgaris SBPV1; for Mupirocin Comb. MIC: MIC of Mupirocin in combination with the peptide; for Peptide Comb. MIC: MIC of peptide in combination with Mupirocin; for FIC: peptide + Mupirocin; for Peptide MIC: peptide alone
Experimental: as §1, §2, §4, §3

[1] = S. aureus SBSA3, peptide + Mupirocin
[2] = S. aureus SBSA4, peptide + Mupirocin
[3] = P. aeruginosa PA3, peptide + Mupirocin

## K R R W V W W V W R L I [MBI 11F4CNR]
bacteria; S. epidermidis SE010
  MIC: 8 µg/mL

## I L K K W P W W P W R R K [MBI 11CAN]
bacteria; A. calcoaceticus AC002, listed as MBI 11ACN
  MIC: 2 µg/mL
bacteria; E. coli ECO005, listed as MBI 11ACN
  MIC: 16 µg/mL
bacteria; E. faecalis EFS004, listed as MBI 11ACN
  MIC: 8 µg/mL
bacteria; K. pneumoniae KP001, listed as MBI 11ACN
  MIC: 16 µg/mL
bacteria; S. epidermidis SE010, listed as MBI 11ACN
  MIC: 4 µg/mL
bacteria; S. maltophilia SMA002, listed as MBI 11ACN
  MIC: 64 µg/mL

## I L K K W P W W P W R K [MBI 11B4CN]
S. aureus; S. aureus SBSA3
  Mupirocin Comb. MIC: 10 µg/mL
  Peptide Comb. MIC: 16 µg/mL
  Peptide MIC: 32 µg/mL
S. aureus; [1]
  FIC: 0.60
S. aureus; S. aureus SBSA4
  Mupirocin Comb. MIC: >100 µg/mL
  Peptide Comb. MIC: 8 µg/mL
  Peptide MIC: 8 µg/mL
S. aureus; [2]
  FIC: 2
E. coli; E. coli ECO1
  Mupirocin Comb. MIC: 10 µg/mL
  Peptide Comb. MIC: 4 µg/mL
  FIC: 0.26
  Peptide MIC: 16 µg/mL
E. faecalis
  Mupirocin Comb. MIC: 100 µg/mL
  Peptide Comb. MIC: 64 µg/mL
  FIC: 2
  Peptide MIC: 64 µg/mL
S. marcescens; S. marcescens SBSM1
  Mupirocin Comb. MIC: >100 µg/mL
  Peptide Comb. MIC: >128 µg/mL
  FIC: 2
  Peptide MIC: >128 µg/mL

## I L K K F P F F P F R R K [MBI 11A1CN]
S. epidermidis
  MIC: 16 µg/mL
S. aureus; S. aureus SBSA3
  Mupirocin Comb. MIC: 100 µg/mL
  Peptide Comb. MIC: >128 µg/mL
S. aureus; [1]
  FIC: 2
S. aureus; S. aureus SBSA5
  Mupirocin Comb. MIC: 10 µg/mL
  Peptide Comb. MIC: 32 µg/mL
S. aureus; S. aureus SBSA5, peptide + Mupirocin
  FIC: 0.58
E. coli; E. coli ECO1
  Mupirocin Comb. MIC: 10 µg/mL
  Peptide Comb. MIC: 4 µg/mL
  FIC: 0.14
E. faecalis
  Mupirocin Comb. MIC: 100 µg/mL
  Peptide Comb. MIC: >128 µg/mL
  FIC: 2
P. aeruginosa; P. aeruginosa PA3
  Mupirocin Comb. MIC: >100 µg/mL
  Peptide Comb. MIC: >128 µg/mL
P. aeruginosa; [3]
  FIC: 2
S. marcescens; S. marcescens SBSM1
  Mupirocin Comb. MIC: >100 µg/mL
  Peptide Comb. MIC: >128 µg/mL
  FIC: 2

## W R I W K P K W R L P K W [MBI 11D18CN]
S. aureus; S. aureus SA10
  Ciprofloxacin Comb. MIC: 32 µg/mL
  Peptide Comb MIC: 2 µg/mL
  Peptide MIC: 2 µg/mL
S. aureus; S. aureus SA10, peptide + Ciprofloxacin
  FIC: 2.00
S. aureus; S. aureus SA14
  Ciprofloxacin Comb. MIC: 8 µg/mL
  Peptide Comb MIC: 4 µg/mL
  Peptide MIC: 8 µg/mL
S. aureus; S. aureus SA14, peptide + Ciprofloxacin
  FIC: 1.00
S. aureus; S. aureus SBSA4
  Mupirocin Comb. MIC: 0.1 µg/mL
  Peptide Comb. MIC: 2 µg/mL
  Peptide MIC: 16 µg/mL
S. aureus; [2]
  FIC: 0.13
E. coli; E. coli SBECO2
  Mupirocin Comb. MIC: 10 µg/mL
  Peptide Comb. MIC: 1 µg/mL
  FIC: 0.07
  Peptide MIC: 16 µg/mL
E. faecalis
  Mupirocin Comb. MIC: 100 µg/mL
  Peptide Comb. MIC: 16 µg/mL
  FIC: 2
  Peptide MIC: 16 µg/mL
P. aeruginosa; P. aeruginosa PA2
  Mupirocin Comb. MIC: 30 µg/mL
  Peptide Comb. MIC: 64 µg/mL
P. aeruginosa; P. aeruginosa PA2, peptide + Mupirocin
  FIC: 0.53
P. aeruginosa; P. aeruginosa PA2, peptide alone
  Peptide MIC: 128 µg/mL
P. aeruginosa; P. aeruginosa PA24, MIC of Ciprofloxacin in combination with the peptide
  Ciprofloxacin Comb. MIC: 4 µg/mL
P. aeruginosa; P. aeruginosa PA24
  Mupirocin Comb. MIC: >100 µg/mL
  Peptide Comb. MIC: >128 µg/mL
P. aeruginosa; P. aeruginosa PA24, MIC of peptide in combination with Ciprofloxacin
  Peptide Comb MIC: 16 µg/mL
P. aeruginosa; P. aeruginosa PA24, peptide + Ciprofloxacin
  FIC: 0.31
P. aeruginosa; P. aeruginosa PA24, peptide + Mupirocin
  FIC: 2
P. aeruginosa; P. aeruginosa PA24, peptide alone (Ciprofloxacin table)
  Peptide MIC: >128 µg/mL
P. aeruginosa; P. aeruginosa PA24, peptide alone (Mupirocin table)
  Peptide MIC: >128 µg/mL
P. vulgaris
  Mupirocin Comb. MIC: 3 µg/mL
  Peptide Comb. MIC: 4 µg/mL
  FIC: 1.13
  Peptide MIC: 32 µg/mL
S. marcescens; S. marcescens SBSM1
  Mupirocin Comb. MIC: 30 µg/mL
  Peptide Comb. MIC: 64 µg/mL
  FIC: 0.28
  Peptide MIC: >128 µg/mL

## I L K K Y P Y Y P Y R R K [MBI 11A3CN]
S. aureus; S. aureus SBSA2
  Mupirocin Comb. MIC: >100 µg/mL
  Peptide Comb. MIC: 128 µg/mL
S. aureus; S. aureus SBSA2, peptide + Mupirocin
  FIC: 2
E. coli; E. coli SBECO1
  Mupirocin Comb. MIC: 30 µg/mL
  Peptide Comb. MIC: 8 µg/mL
  FIC: 0.43
E. faecalis
  Mupirocin Comb. MIC: 100 µg/mL
  Peptide Comb. MIC: >128 µg/mL
  FIC: 2
P. aeruginosa; P. aeruginosa PA3
  Mupirocin Comb. MIC: >100 µg/mL
  Peptide Comb. MIC: >128 µg/mL
P. aeruginosa; [3]
  FIC: 2
S. marcescens; S. marcescens SBSM2
  Mupirocin Comb. MIC: >100 µg/mL
  Peptide Comb. MIC: >128 µg/mL
  FIC: 2

## C/C(=C\C(=O)OCCCCCCCCC(=O)O)C[C@@H]1OC[C@H](C[C@@H]2O[C@H]2[C@@H](C)[C@H](C)O)[C@@H](O)[C@H]1O [Mupirocin, reference compound]
S. aureus; Staphylococcus aureus, S. aureus SBSA5, Mupirocin alone
  MIC: 30 µg/mL
E. faecalis; Enterococcus faecalis, Mupirocin alone
  MIC: 100 µg/mL
P. aeruginosa; P. aeruginosa PA24, Mupirocin alone
  Mupirocin MIC: >100 µg/mL
P. vulgaris; Proteus vulgaris, Mupirocin alone
  MIC: 3 µg/mL

## I L K K W P W W P W K [MBI 11G13CN]
S. aureus; S. aureus SBSA3
  Mupirocin Comb. MIC: 100 µg/mL
  Peptide Comb. MIC: 64 µg/mL
  Peptide MIC: 64 µg/mL
S. aureus; [1]
  FIC: 2
E. coli; E. coli ECO5
  Mupirocin Comb. MIC: 30 µg/mL
  Peptide Comb. MIC: 8 µg/mL
  FIC: 0.43
  Peptide MIC: 64 µg/mL
P. vulgaris
  Mupirocin Comb. MIC: 3 µg/mL
  Peptide Comb. MIC: >128 µg/mL and 64 µg/mL
  FIC: 2 and 1.25
  Peptide MIC: >128 µg/mL
S. marcescens; S. marcescens SBSM1
  Mupirocin Comb. MIC: >100 µg/mL
  Peptide Comb. MIC: >128 µg/mL
  FIC: 2
  Peptide MIC: >128 µg/mL
